Results on 18 molecules are retold here after US20100087466A1, “NOVEL SMALL MOLECULE DNAK INHIBITORS” (priority 2008, published 2010).

One assay has as its target DnaK (Escherichia coli, UniProt P0A6Y8). Nature of the assay: DnaK Inhibition Assay (DnaK induced refolding of denatured firefly luciferase). The class given is biochemical, E. coli. As to conditions: DnaK 200 nM, DnaJ 100 nM, GrpE 400 nM. On the procedure: Inhibition of the bacterial DnaK chaperone system may be evaluated by inhibition of the DnaK induced refolding of denatured firefly luciferase. More specifically, firefly luciferase is denatured by treatment with 8N guanidium hydrochloride at room temperature for 30 mins and then 5° C. for 1 h. After dilution into cold MOPS buffer augmented with ATP (2.5 mM) and DTT (12.5 mM) and standing for a further hour, the denatured luciferase is refolded by addition to a mixture of chaperone proteins in MOPS buffer, resulting in a reaction mixture containing denatured luciferase (24 nM), DnaK (200 nM), DnaJ (100 nM) and GrpE (400 nM). The extent of refolding is determined by addition of a luciferase substrate and measurement of the emitted chemoluminescence. In this format the substrate is the commercially available luciferase “Steady-Glo” reagent from Promega, Inc. Inhibition of DnaK induced refolding is determined by premixing the chaperone proteins with the test agent at concentrations of test agent ranging from 1-100 μg/mL. The extent of refolding is compared to that with no test reagent, and the IC50 is estimated by fitting the data to a standard sigmoidal dose-response curve.
Inhibition of the bacterial DnaK chaperone system was evaluated by inhibition of the DnaK induced refolding of denatured firefly luciferase. Firefly luciferase was denatured by treatment with 8N guanidium hydrochloride at room temperature for 30 mins and then 5° C. for 1 h. After dilution into cold MOPS buffer augmented with ATP (2.5 mM) and DTT (12.5 mM) and standing for a further hour, the denatured luciferase was refolded by addition to a mixture of chaperone proteins in MOPS buffer, resulting in a reaction mixture containing denatured luciferase (24 nM), DnaK (200 nM), DnaJ (100 nM) and GrpE (400 nM). The extent of refolding was determined by addition of a luciferase substrate and measurement of the emitted chemoluminescence. In this format the substrate is the commercially available luciferase “Steady-Glo” reagent from Promega, Inc. Inhibition of DnaK induced refolding was determined by premixing the chaperone proteins with the test agent at concentrations of test agent ranging from 1-100 μg/mL. The extent of refolding was compared to that with no test reagent, and the IC50 was estimated by fitting the data to a standard sigmoidal dose-response curve.
IC50 is defined as the concentration in μM at which 50% inhibition of DnaK induced refolding of denatured firefly luciferase occurs.

For the next assay, the system named is E. coli (ATCC 25922). The assay is described as follows: Antibacterial activity against E. coli (MIC). The class given is cell-based. The settings on record: for MIC: Escherichia coli, ATCC25922.
The subject of assay [1] is H. influenzae (Strain 109). Nature of the assay: H. influenzae Inhibition Assay (broth microdilution MIC), Strain 109. The class given is cell-based. The protocol:
(§1) An in vitro assay may be conducted by determining the minimum inhibitory concentration (MIC) of the small molecules to Gram negative bacteria, such as H. influenza. H. influenzae MICs are determined using CLSI recommended broth microdilution methodology (M7-A7). Test agent powders are dissolved in DMSO, serial dilutions are also made in DMSO and 1:100 dilutions of each are then prepared in Haemophilus Test media (HTM). 100 μL of each final dilution are transferred to appropriate wells of a 96 well microtiter plate. The test organism is suspended in saline or Mueller Hinton broth to an organism density equivalent to a 0.5 McFarland Standard. 300 μL of the H. influenzae suspension is transferred to 11 mLs of HTM and 10 μL of this suspension is transferred to each well of the microtiter plate. […] Colony counts are determined for each inoculum and expected range of final organism concentration is 3-7×10^5 CFU/mL. One of the recommended H. influenzae quality control strains (ATCC 49247 or 49766) is also tested on each testing day.
as §1, with “H.” for “An in vitro assay may be conducted by determining the minimum inhibitory concentration (MIC) of the small molecules to Gram negative bacteria, such as H. influenza. H.”
(§2) Pyrrhocoricin was used as a control. MIC is defined as the lowest concentration of an anti-bacterial agent that will inhibit the visible growth of a microorganism after overnight incubation.

In assay [2] the test system is H. influenzae (Strain 110). The assay is described as follows: H. influenzae Inhibition Assay (broth microdilution MIC), Strain 110. The settings on record: Haemophilus influenzae; Strain 110; HTM, 35° C., 20-24 hours; read-out: H. influenzae (Strain 110) MIC. The class given is cell-based. The protocol:
as §1
as §1, with “H.” for “An in vitro assay may be conducted by determining the minimum inhibitory concentration (MIC) of the small molecules to Gram negative bacteria, such as H. influenza. H.”
as §2

Setting [3] is: read-out: DnaK IC50(μg/ml) (converted).

Values after ≈ are worked out from the molar mass of the structure shown. Where a name gives a salt, the structure may show the parent alone. Read-outs that look alike come from different tables or passages of the source. Non-standard residues stand in square brackets, D forms with d. Residues, ends and D or L forms follow the SMILES beside them. ξ: configuration not given here. *: point of attachment. Hyp = O=C(O)[C@@H]1C[C@@H](O)CN1; NH(CH2)3Ph = c1ccc(CCCN*)cc1; 2Pyrimidinyl = c1cnc(*)nc1; ξR = N=C(N)NCCCC(N)C(=O)O; Octanoyl = CCCCCCCC(=O)*; Orn = NCCC[C@H](N)C(=O)O; Piperidide = C1CCN(*)CC1; Boc = CC(C)(C)OC(=O)*; Bn = c1ccc(C*)cc1

DnaK, sequence (P0A6Y8 2-638): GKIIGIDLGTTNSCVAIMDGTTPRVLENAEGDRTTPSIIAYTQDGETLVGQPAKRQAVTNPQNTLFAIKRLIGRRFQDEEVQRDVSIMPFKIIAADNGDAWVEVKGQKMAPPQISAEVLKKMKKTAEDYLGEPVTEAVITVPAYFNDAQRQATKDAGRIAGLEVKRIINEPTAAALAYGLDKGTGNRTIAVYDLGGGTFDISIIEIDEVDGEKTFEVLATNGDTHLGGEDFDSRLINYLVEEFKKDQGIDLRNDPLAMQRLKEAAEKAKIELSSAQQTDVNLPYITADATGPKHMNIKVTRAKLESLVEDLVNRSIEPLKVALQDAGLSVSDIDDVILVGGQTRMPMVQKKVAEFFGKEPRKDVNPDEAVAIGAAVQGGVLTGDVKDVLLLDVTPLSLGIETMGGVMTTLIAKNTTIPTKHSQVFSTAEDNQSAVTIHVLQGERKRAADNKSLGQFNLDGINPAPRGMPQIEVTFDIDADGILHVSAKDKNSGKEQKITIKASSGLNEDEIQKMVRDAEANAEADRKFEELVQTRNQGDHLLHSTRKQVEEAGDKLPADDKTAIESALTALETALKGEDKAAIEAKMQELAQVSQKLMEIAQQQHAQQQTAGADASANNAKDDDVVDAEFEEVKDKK

On to “3-(Octylamido)-nicotinoyl-Tyr(Bzl)-Leu-Pro-Arg-OMe trifluoroacetate [Structure 31]”, for which the “DnaK IC50(μg/ml)” value on DnaK came to 10 µg/mL. Further, on DnaK (read-out: DnaK IC50), the IC50 worked out at 10 µM. In the assay with E. coli (ATCC 25922) (ATCC 25922), the “E. coli (ATCC 25922) MIC” value is 32 µg/mL.
For `COC(=O)[C@@H]1CCCN1C(=O)[C@H](CC(C)C)NC(=O)[C@H](Cc1ccc(OCc2ccccc2)cc1)NC(C)=O` [Structure 2, Ac-Tyr(Bzl)-Leu-Pro-OMe] (Ac-Tyr(Bn)-Leu-Pro-OMe), the MIC in assay [1] (Haemophilus influenzae, Strain 109, HTM, 35° C., 20-24 hours, read-out: H. influenzae (Strain 109) MIC) is 32 µg/mL (≈ 59.5 µM); in assay [2], above 128 µg/mL. Further, in assay [1] (strain 109), the “inhibition of H. influenzae strain 109 compared with the control pyrrhocoricin” value is listed as “lower concentration than the control”. Further, the IC50 on DnaK (read-out: DnaK IC50) was 63 µM; at DnaK (setting [3]), 219 µM.
As for `CC(=O)N[C@@H](Cc1ccc(O)cc1)C(=O)N[C@@H](CC(C)C)C(=O)N1CCC[C@H]1C(=O)N[C@@H](CCCNC(=O)OC(C)(C)C)C(=O)N1CCC[C@H]1C(=O)NCCCc1ccccc1` [Structure 18, Ac-Tyr-Leu-Pro-Orn(Boc)-Pro-NH(CH2)3Ph] (Ac-YLP[Orn](Boc)P-{NH(CH2)3Ph}), the IC50 on DnaK (read-out: DnaK IC50) is 54 µM; on DnaK (setting [3]) it was 63.8 µM.
For `CC(=O)N[C@@H](Cc1ccc(O)cc1)C(=O)N[C@@H](CC(C)C)C(=O)N1CCC[C@H]1C(=O)N[C@@H](CCCN)C(=O)N1CCC[C@H]1C(=O)NCCCc1ccccc1` [Structure 19, Ac-Tyr-Leu-Pro-Orn-Pro-NH(CH2)3Ph] (Ac-YLP[Orn]P-{NH(CH2)3Ph}) the same measures were 40 µM and 60.4 µM.
For `CC(=O)N[C@@H](Cc1ccc(OCc2ccccc2)cc1)C(=O)N[C@@H](CC(C)C)C(=O)N1CCC[C@H]1C(=O)N[C@@H](CCCN)C(=O)N1CCC[C@H]1C(=O)NCCCc1ccccc1` [Structure 20, Ac-Tyr(Bzl)-Leu-Pro-Orn-Pro-NH(CH2)3Ph] (Ac-Y(Bn)LP[Orn]P-{NH(CH2)3Ph}) the same measures were 16 µM and 20 µM.
The matching figures for `CC(=O)N[C@@H](Cc1ccc(OCc2ccccc2)cc1)C(=O)N[C@@H](CC(C)C)C(=O)N1CCC[C@H]1C(=O)N[C@@H](CCCNc1ncccn1)C(=O)N1CCC[C@H]1C(=O)NCCCc1ccccc1` [Structure 21, Ac-Tyr(Bzl)-Leu-Pro-Orn(2-pyrimidine)-Pro-NH(CH2)3Ph] (Ac-Y(Bn)LP[Orn](2Pyrimidinyl)P-{NH(CH2)3Ph}): 22 µM and 22.6 µM.
Turning to `CCC(C)[C@H](NC(=O)[C@H](Cc1ccc(O)cc1)NC(C)=O)C(=O)N[C@@H](CO)C(=O)OC` (stereo partly drawn) [Structure 23, Ac-Tyr-Ile-Ser-OMe], the IC50 is 101 µM at DnaK (read-out: DnaK IC50) and 530 µM on DnaK (setting [3]).
The matching figures for `CCC(C)[C@H](NC(=O)[C@H](Cc1ccc(O)cc1)NC(C)=O)C(=O)N[C@@H](CO)C(=O)O` (stereo partly drawn) [Structure 24, Ac-Tyr-Ile-Ser-OH]: 240 µM and 309 µM.
For the molecule `CCCCCCCC(=O)N[C@H](Cc1ccc(OCc2ccccc2)cc1)C(=O)N[C@@H](CC(C)C)C(=O)N1CCC[C@H]1C(=O)N[C@H](CCCNC(=N)N)C(=O)OC` [Structure 25, Octanoyl-(D)-Tyr(Bzl)-Leu-Pro-Arg-OMe trifluoroacetate] (Octanoyl-[dY](Bn)LP[dR]-OMe), the IC50 at DnaK (read-out: DnaK IC50) was 20 µM; at DnaK (setting [3]), 23.1 µM. This molecule also had an MIC in the assay on E. coli (ATCC 25922) of 128 µg/mL.
For `CCCCCCCC(=O)N[C@@H](Cc1ccc(OCc2ccccc2)cc1)C(=O)N[C@@H](CC(C)C)C(=O)N1CCC[C@H]1C(=O)N[C@H](CCCNC(=N)N)C(=O)OC` [Structure 26, Octanoyl-Tyr(Bzl)-Leu-Pro-Arg-OMe trifluoroacetate] (Octanoyl-Y(Bn)LP[dR]-OMe) the same measures were 30 µM, 34.7 µM and 32 µg/mL.
Consider `CCCCCCCC(=O)N[C@@H](Cc1ccc(O)cc1)C(=O)N[C@@H](CC(C)C)C(=O)N1CCC[C@H]1C(=O)N[C@H](CCCNC(=N)N)C(=O)N1CCCCC1` [Structure 27, Octanoyl-Tyr-Leu-Pro-Arg-N(CH2)5 trifluoroacetate] (Octanoyl-YLP[dR]-Piperidide), for which the IC50 on DnaK (read-out: DnaK IC50) was 8 µM; on DnaK (setting [3]), 9.45 µM.
`CCCCCCCC(=O)N[C@@H](Cc1ccc(OCc2ccccc2)cc1)C(=O)N[C@@H](CC(C)C)C(=O)N1CCC[C@H]1C(=O)N[C@H](CCCNC(=N)N)C(=O)N1CCCCC1` [Structure 28, Octanoyl-Tyr(Bzl)-Leu-Pro-Arg-N(CH2)5 trifluoroacetate] (Octanoyl-Y(Bn)LP[dR]-Piperidide): the results for the IC50 at DnaK (read-out: DnaK IC50) and on DnaK (setting [3]) were 13 µM and 14.4 µM, respectively. Moreover, in the assay on E. coli (ATCC 25922), the MIC amounted to 32 µg/mL.
For `CCCCCCCC(=O)N[C@@H](Cc1ccc(OCc2ccccc2)cc1)C(=O)N[C@@H](CC(C)C)C(=O)N1CCC[C@H]1C(=O)N1CC[C@H](NC(=N)N)C1` [Structure 29, Octanoyl-Tyr(Bzl)-Leu-Pro-(S)-(3-guanidino)pyrrolidinyl amide] the same measures were 10 µM, 11.1 µM and 32 µg/mL (≈ 44.6 µM).
For `CCCCCCCC(=O)N[C@@H](Cc1ccc(OCc2ccccc2)cc1)C(=O)N[C@@H](CC(C)C)C(=O)N1CCC[C@H]1C(=O)NCCNC(=N)N` [Structure 30, Octanoyl-Tyr(Bzl)-Leu-Pro-NH(CH2)2 NH—C(═NH)—NH2 trifluoroacetate] the same measures were 19 µM, 21.7 µM and 32 µg/mL.
The matching figures for `CCCCCCCC(=O)N[C@@H](Cc1ccc(OCc2ccccc2)cc1)C(=O)N[C@@H](CC(C)C)C(=O)N1C[C@H](O)C[C@H]1C(=O)N[C@H](CCCNC(=N)N)C(=O)N1CCCCC1` [Structure 32, Octanoyl-Tyr(Bzl)-Leu-Hyp-ArgN(CH2)5 trifluoroacetate] (Octanoyl-Y(Bn)L[Hyp][dR]-Piperidide): 12 µM, 14.2 µM and 64 µg/mL.
For the molecule `CCCCCCCC(=O)N[C@@H](Cc1ccc(OCc2ccccc2)cc1)C(=O)N[C@@H](CC(C)C)C(=O)N1CCC[C@H]1C(=O)N1CCCC(CNC(=N)N)C1` (stereo partly drawn) [Structure 33, Octanoyl-Tyr(Bzl)-Leu-Pro-(3-guanidinomethylpiperidine) trifluoroacetate], the values for the IC50 on DnaK (read-out: DnaK IC50) and on DnaK (setting [3]) were 23 µM and 26.8 µM, respectively. Further, the MIC in the assay on E. coli (ATCC 25922) is 16 µg/mL.
`CC(=O)N[C@@H](Cc1ccc(O)cc1)C(=O)N[C@@H](CC(C)C)C(=O)N1CCC[C@H]1C(=O)NC(CCCNC(=N)N)C(N)=O` (stereo partly shown) [Structure 34] (Ac-YLP[ξR]-NH2) returned an MIC against E. coli (ATCC 25922) above 256 µg/mL.
As for “Ac-YLPRP-NH2 [Structure 1, Ac-Tyr-Leu-pro-Arg-Pro-NH2]”, the IC50 was 58 µM at DnaK (read-out: DnaK IC50) and 67.1 µM on DnaK (setting [3]).
